# Test results from patent US4321265A, “7α-Methoxycephalosporins” (Toyama Chemical Co., Ltd., priority 1977, dated 1982).
# Read-outs that look alike come from different tables or passages of the source.
# Assays:
# [1] = molecular target: T1, Cephalosporinase (E. coli GN-5482) (Escherichia coli, UniProt P00811); assay: Stability to β-lactamase, iodometry (Perret); assay type: biochemical; details: E. coli GN-5482 cephalosporinase; CER = 100; 30° C., pH 7.0
# T1 construct: native preparation, details not in excerpts
# T1 sequence (P00811 20-377): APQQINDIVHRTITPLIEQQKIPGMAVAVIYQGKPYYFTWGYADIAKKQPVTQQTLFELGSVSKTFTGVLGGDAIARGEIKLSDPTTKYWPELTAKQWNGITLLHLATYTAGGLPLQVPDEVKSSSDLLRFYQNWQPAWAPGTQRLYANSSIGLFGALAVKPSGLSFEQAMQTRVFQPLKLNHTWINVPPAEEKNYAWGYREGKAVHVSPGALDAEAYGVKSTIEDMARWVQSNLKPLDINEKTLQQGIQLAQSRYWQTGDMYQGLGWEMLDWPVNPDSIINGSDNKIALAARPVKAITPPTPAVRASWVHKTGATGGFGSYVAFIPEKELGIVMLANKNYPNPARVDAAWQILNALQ
# Protocol: (§1) The stability to β-lactamase was examined by iodometry at 30° C. by the method of Perret (Perret, C. J., "Iodometric assay of penicillinase", Nature, 174, 1012-1013 (1954)), except that a 0.1 M phosphate buffer solution (pH 7.0) was used in place of the 0.2 M phosphate buffer solution (pH 6.5). The stability of each compound was shown in Table 2 in terms of relative degree of hydrolysis, assuming the stability of Cephaloridin (CER) to cephalosporinase as 100 and the stability of Penicillin G (PCG) to penicillinase as 100.
# [2] = test system: Penicillinase (P. aeruginosa GN-3379); assay: Stability to β-lactamase, iodometry (Perret); assay type: biochemical; details: P. aeruginosa GN-3379 penicillinase; PCG = 100; 30° C., pH 7.0
# Protocol: as §1
# [3] = test system: Penicillinase (E. coli TK-3); assay: Stability to β-lactamase, iodometry (Perret); assay type: biochemical; details: E. coli TK-3 penicillinase; PCG = 100; 30° C., pH 7.0
# Protocol: as §1
# [4] = molecular target: T2, Cephalosporinase (S. marcescens W-8) (Serratia marcescens, UniProt P18539); assay: Stability to β-lactamase, iodometry (Perret); assay type: biochemical; details: S. marcescens W-8 cephalosporinase; CER = 100; 30° C., pH 7.0
# T2 construct: native preparation, details not in excerpts
# T2 sequence (P18539 22-376): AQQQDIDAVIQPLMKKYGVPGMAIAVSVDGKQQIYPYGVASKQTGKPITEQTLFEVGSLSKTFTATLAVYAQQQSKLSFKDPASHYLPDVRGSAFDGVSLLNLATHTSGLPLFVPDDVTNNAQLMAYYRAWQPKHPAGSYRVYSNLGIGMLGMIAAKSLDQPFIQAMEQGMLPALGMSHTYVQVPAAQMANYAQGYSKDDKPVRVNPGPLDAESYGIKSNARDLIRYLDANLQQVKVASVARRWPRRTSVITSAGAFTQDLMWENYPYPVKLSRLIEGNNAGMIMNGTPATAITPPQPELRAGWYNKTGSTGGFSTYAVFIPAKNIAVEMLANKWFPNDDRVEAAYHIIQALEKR
# Protocol: as §1
# [5] = test system: Penicillinase (K. pneumoniae Y-4); assay: Stability to β-lactamase, iodometry (Perret); assay type: biochemical; details: K. pneumoniae Y-4 penicillinase; PCG = 100; 30° C., pH 7.0
# Protocol: as §1
# Ser. marcescens W-8 = assay: Minimum inhibitory concentration (MIC), Heart Infusion agar; assay type: cell-based; details: Serratia marcescens, read-out: minimum inhibitory concentration (MIC)
# Protocol: (§2) Antibacterial activities of the representative compounds (Ib) of the 7α-methoxycephalosporins according to this invention are shown in Table 1. [drawing 20]
# (§3) The figures given in Table 1 represent the minimum inhibitory concentration (MIC in mcg/ml) of each compound, which was determined according to the method described in "Chemotherapy (Society of Chemotherapy, Japan), Vol. 16, 98-99 (1968)": A culture obtained by cultivating the test bacterium in a Heart Infusion broth (Eiken Kagaku Co.) was inoculated into a Heart Infusion agar medium (Eiken Kagaku Co.). After 20 hours of the incubation at 37° C., the growth of the bacterium was inspected to determine the minimum inhibitory concentration (MIC in mcg/ml). The inoculation rate of the bacterium was 10^4 cells/plate (10^6 cells/ml).
# (§4) (1) Minimum inhibitory concentration (MIC in mcg/ml).
# K. pneumoniae Y-50 = assay: as above; assay type: cell-based; details: Klebsiella pneumoniae, read-out: minimum inhibitory concentration (MIC)
# Protocol: as §2, §3, §4
# [6] = test system: Acinetobacter caloaceticus A-6; assay: as above; assay type: cell-based; details: read-out: minimum inhibitory concentration (MIC)
# Protocol: as §2, §3, §4
# Ps. aeruginosa IFO-3445 = assay: as above; assay type: cell-based; details: Pseudomonas aeruginosa, read-out: minimum inhibitory concentration (MIC)
# Protocol: as §2, §3, §4
# [7] = test system: C. freundii GN-346 (Cephalosporinase-producing bacterium); assay: as above; assay type: cell-based; details: Citrobacter freundii, read-out: minimum inhibitory concentration (MIC)
# Protocol: as §2, §3, §4
# Ps. aeruginosa S-68 = assay: as above; assay type: cell-based; details: Pseudomonas aeruginosa, read-out: minimum inhibitory concentration (MIC)
# Protocol: as §2, §3, §4
# Ent. cloacae IID977 = assay: as above; assay type: cell-based; details: Enterobacter cloacae, read-out: minimum inhibitory concentration (MIC)
# Protocol: as §2, §3, §4
# [8] = test system: S. aureus F-19 (Penicillinase-producing bacterium); assay: as above; assay type: cell-based; details: Staphylococcus aureus, read-out: minimum inhibitory concentration (MIC)
# Protocol: as §2, §3, §4
# Prot. vulgaris GN-76 = assay: as above; assay type: cell-based; details: Proteus vulgaris, read-out: minimum inhibitory concentration (MIC)
# Protocol: as §2, §3, §4
# E. coli NIHJ = assay: as above; assay type: cell-based; details: Escherichia coli, read-out: minimum inhibitory concentration (MIC)
# Protocol: as §2, §3, §4
# Citrobacter N-7 = assay: as above; assay type: cell-based; details: read-out: minimum inhibitory concentration (MIC)
# Protocol: as §2, §3, §4
# Ser. marcescens IID620 = assay: as above; assay type: cell-based; details: Serratia marcescens, read-out: minimum inhibitory concentration (MIC)
# Protocol: as §2, §3, §4
# Klebsiella spp. Y-72 = assay: as above; assay type: cell-based; details: read-out: minimum inhibitory concentration (MIC)
# Protocol: as §2, §3, §4
# S. marcescens W-35 = assay: Infection-protective activity in mice; assay type: in vivo, ICR-strain mice (male); details: subcutaneous, one hour after intraperitoneal inoculation; challenge dose 2.5 × 10^5 cells/mouse; ICR mice
# Text: Four-week old ICR-strain mice (male) in groups, each group consisting of five mice, were inoculated intraperitoneally with a prescribed quantity of a pathogenic bacterium suspended in 5% mucin. After one hour from the inoculation, the mice were subcutaneously administered with the test preparation to determine the infection-protective activity. The figures in Table 4 represent the protective activity in terms of ED50.
# Ser. marcescens W-35 = assay: Minimum inhibitory concentration (MIC), Heart Infusion agar; assay type: cell-based; details: Serratia marcescens, W35, 20 h
# Protocol: as §2
# as §3, with “The inoculation rate of the bacterium was 10^4 cells/plate (10^6 cells/ml).” left out
# as §4
# [9] = W8, Ser. marcescens W-8, 10^6 cells/ml, 20 hours, 37° C.
# [10] = Y50, K. pneumoniae Y-50, 10^6 cells/ml, 20 hours, 37° C.
# [11] = A6, Acinetobacter caloaceticus A-6, 10^6 cells/ml, 20 hours, 37° C.
# [12] = IFO3445, Ps. aeruginosa IFO-3445, 10^6 cells/ml, 20 hours, 37° C.
# [13] = GN346, C. freundii GN-346, 10^6 cells/ml, 20 hours, 37° C.
# [14] = S68, Ps. aeruginosa S-68, 10^6 cells/ml, 20 hours, 37° C.
# [15] = Ent. cloacae IID977, 10^6 cells/ml, 20 hours, 37° C.
# [16] = S. aureus F-19, 10^6 cells/ml, 20 hours, 37° C.
# [17] = GN76, Prot. vulgaris GN-76, 10^6 cells/ml, 20 hours, 37° C.
# [18] = E. coli NIHJ, 10^6 cells/ml, 20 hours, 37° C.
# [19] = N7, Citrobacter N-7, 10^6 cells/ml, 20 hours, 37° C.
# [20] = Ser. marcescens IID620, 10^6 cells/ml, 20 hours, 37° C.
# [21] = SPP.Y72, Klebsiella spp. Y-72, 10^6 cells/ml, 20 hours, 37° C.
# [22] = Ser. marcescens W-35, 10^6 cells/ml, 20 hours, 37° C. (Table 1), read-out: minimum inhibitory concentration (MIC)
SMILES,"Stability to β-lactamase, relative degree of hydrolysis [1]","Stability to β-lactamase, relative degree of hydrolysis [2]","Stability to β-lactamase, relative degree of hydrolysis [3]","Stability to β-lactamase, relative degree of hydrolysis [4]","Stability to β-lactamase, relative degree of hydrolysis [5]",MIC (Ser. marcescens W-8; [9]) [µg/mL],MIC (K. pneumoniae Y-50; [10]) [µg/mL],"MIC [6, 11] [µg/mL]",MIC (Ps. aeruginosa IFO-3445; [12]) [µg/mL],"MIC [7, 13] [µg/mL]",MIC (Ps. aeruginosa S-68; [14]) [µg/mL],MIC (Ent. cloacae IID977; [15]) [µg/mL],"MIC [8, 16] [µg/mL]",MIC (Prot. vulgaris GN-76; [17]) [µg/mL],MIC (E. coli NIHJ; [18]) [µg/mL],MIC (Citrobacter N-7; [19]) [µg/mL],MIC (Ser. marcescens IID620; [20]) [µg/mL],MIC (Klebsiella spp. Y-72; [21]) [µg/mL],MIC (Ser. marcescens W-35; [22]) [µg/mL],also measured
"Cc1nnc(SCC2=C(C(=O)O)N3C(=O)[C@@H](NC(=O)Cn4cnnn4)[C@H]3SC2)s1 [CEZ, Cefazolin]",130,2,21,94,4,,,,,,,,,,,,,,,
"CO[C@@]1(NC(=O)CSCC#N)C(=O)N2C(C(=O)O)=C(CSc3nnnn3C)CS[C@@H]21 [CS-1170, reference compound]",,,,,,,,,,,,,,,,,,,,"MIC (Ser. marcescens W-8; W8, 20 h): ≥ 200 µg/mL; MIC (K. pneumoniae Y-50; Y50, 20 h): 0.39 µg/mL; MIC ([6]; Acinetobacter, A6, 20 h): 50 µg/mL; MIC (Ps. aeruginosa IFO-3445; IFO3445, 20 h): ≥ 200 µg/mL; MIC ([7]; GN346, 20 h): ≥ 200 µg/mL; MIC (Ps. aeruginosa S-68; S68, 20 h): ≥ 200 µg/mL; MIC (Ent. cloacae IID977; IID977, 20 h): ≥ 200 µg/mL; MIC ([8]; 20 h): 1.56 µg/mL; MIC (Prot. vulgaris GN-76; GN76, 20 h): 3.13 µg/mL; MIC (E. coli NIHJ; 20 h): 0.39 µg/mL; MIC (Citrobacter N-7; Citrobacter, N7, 20 h): 25 µg/mL; MIC (Ser. marcescens IID620; IID620, 20 h): 3.13 µg/mL; MIC (Klebsiella spp. Y-72; Klebsiella, SPP.Y72, 20 h): 12.5 µg/mL; ED50 (infection-protective activity) (S. marcescens W-35): 15.1 mg/mouse; MIC (Ser. marcescens W-35; S. marcescens W-35, inoculated bacteria quantity 10^6 cells/ml (Table 4)): 100 µg/mL; MIC (Ser. marcescens W-35; S. marcescens W-35, inoculated bacteria quantity 10^8 cells/ml (Table 4)): 200 µg/mL; MIC (Ser. marcescens W-35; read-out: minimum inhibitory concentration (MIC), Ser. marcescens W-35, 10^6 cells/ml, 20 hours, 37° C. (Table 1)): 100 µg/mL"
"CCN1CCN(C(=O)N[C@@H](C(=O)N[C@]2(OC)C(=O)N3C(C(=O)O)=C(COC(C)=O)CS[C@@H]32)c2cccs2)C(=O)C1=O [OCOCH3, 7β-[D(-)-α-(4-ethyl-2,3-dioxo-1-piperazinecarboxamido)-α-(2-thienyl)-acetamido]-7α-methoxy-3-acetoxymethyl-Δ^3-cephem-4-carboxylic acid]",,,,,,100,1.56,25,50,100,50,50,6.25,1.56,≤ 0.1,3.13,3.13,6.25,50,
"CC1(C)S[C@@H]2[C@H](NC(=O)Cc3ccccc3)C(=O)N2[C@H]1C(=O)O [PC-G, Penicillin G]",22,100,100,21,100,,,,,,,,,,,,,,,
CCN1CCN(C(=O)NC(C(=O)N[C@]2(OC)C(=O)N3C(C(=O)O)=C(CSc4nnnn4C)CS[C@@H]32)c2cccs2)C(=O)C1=O (stereo partly shown) [drawing 22],,,,,,25,0.39,12.5,12.5,25,12.5,25,3.13,0.2,≤ 0.1,0.78,0.78,6.25,6.25,
